# Measurements: paper PMC10882157 (Diabetes, 2023)
# pEC50: −log10 of the molar value. Values joined by “and” are separate entries in the source; they are usually repeats but may differ in a detail not shown here. Identical values can stand only once.
# Key:
# rat L6 myoblasts = test: Cellular oxygen consumption rate; type: cell-based
# L6 myoblasts = test: Whole-cell current clamp recording of plasma membrane potential; type: cell-based, rat; conditions: n = 8
# [1] = Mouse pharmacokinetics and oral bioavailability; type: in vivo, C57BL/6J mice; conditions: C57BL/6J, plasma, 10 mg/kg
# [2] = Rat pharmacokinetics and oral bioavailability; type: in vivo, Sprague-Dawley rats; conditions: Sprague-Dawley, serum
# [3] = Intrinsic clearance in human liver microsomes; type: in vitro ADME
# mice [4] = test: Dose escalation tolerability study by oral gavage; type: in vivo, mouse
# C57BL/6J mouse tissue = test: High-resolution respirometry; type: in vivo, C57BL/6J mice; conditions: 2 h after oral gavage of 30 mg/kg
# mice [5] = test: Whole-body OCR by indirect calorimetry; type: in vivo, mouse; conditions: 40 mg/kg oral gavage
# C57BL/6J mice fed the WD = test: Western diet-induced adiposity reversal study; type: in vivo
# [6] = Tissue concentrations at study termination; type: in vivo, C57BL/6J mice; conditions: for concentration at 6 weeks: C57BL/6J, mouse, oral, 38 mg/kg per day (0.04% w/w in diet)
# [7] = system: ACC, pSer79-ACC, FAS, AMPK (pThr172); type: in vivo, mouse; conditions: mice fed SHD865 in the WD
# [8] = system: β-hydroxy-acyl-CoA dehydrogenase (HAD); test: Enzyme activity of HAD in WD-fed mice; type: in vivo, mouse; conditions: mice fed SHD865 in the WD
# [9] = system: medium-chain acyl-CoA dehydrogenase (MCAD); test: Enzyme activity of MCAD in WD-fed mice; type: in vivo, mouse; conditions: mice fed SHD865 in the WD
# L6 cells = test: Mitochondrial stress test; conditions: drug 50 μmol/L, oligomycin 1 μmol/L
# [10] = second cohort, versus WD-fed controls, 4–5 h fasting
smiles,measurement,setting,value
"N#CC(C#N)=NNc1ccc(OC(F)(F)F)cc1 [FCCP, carbonylcyanide p-(trifluoromethoxy)phenylhydrazone, reference compound]",pEC50,"rat L6 myoblasts; read-out: EC50 (OCR), average values, dose response 0.4 to 50 μmol/L",5.92
same,plasma membrane depolarization,L6 myoblasts; 10 μmol/L,4.9 ± 1.0 mV
"COc1nc2nc(C(F)(F)F)[nH]c2nc1Nc1ccc(OC(F)(F)F)cc1F [SHD865, N-[2-fluoro-4-[trifluoromethoxy]phenyl]-5-methoxy-2-[trifluoromethyl]-1H-imidazo[4,5-b]pyrazine-6-amine]",uncoupled respiration across concentration range,rat L6 myoblasts,maintained uncoupled respiration at a stable rate across a large concentration range
same,bioactive concentration range in vitro,rat L6 myoblasts; Fig. 1B,> 10 µmol/L
same,"increase of cellular OCR, as % of the maximal OCR induced by BAM15 and FCCP",rat L6 myoblasts; dose response 0.4 to 50 μmol/L,~90%
same,plasma membrane depolarization,L6 myoblasts; 25 μmol/L,1.4 ± 0.4 mV
same,Cmax,[1],9.1 µM
same,half-life,[1],1.7 h
same,half-life,[2],1.7 h
same,microsomal CLint,[3],< 116 µL/min/mg
same,adverse effects after acute oral bolus,"mice [4]; C57BL/6J mice, 1,000 mg/kg oral",no adverse effects
same,behavioral signs of distress or ill thrift,"mice [4]; mice, oral gavage 300 and 1,000 mg/kg, 24-h observation",no behavioral signs of distress or ill thrift were observed
same,effect on body (rectal) temperature,"mice [4]; mice, oral gavage 300 and 1,000 mg/kg, 24 h",no effect on body temperature was detected
same,efficacious dose relative to dose level with no observed adverse effect,"mice [4]; ∼38 mg/kg per day in diet versus 1,000 mg/kg acute oral",27 fold
same,"mitochondrial activity in liver, muscle, heart, white and brown fat",C57BL/6J mouse tissue,only the liver had significantly increased mitochondrial activity
same,time for respiration to return to normal,mice [5],4 h
same,increase in whole-body OCR compared with vehicle,mice [5]; first hour after treatment,up to 26%
same,fecal triglyceride levels compared with WD-fed mice,C57BL/6J mice fed the WD; 0.04% w/w in WD,did not alter fecal triglyceride levels
same,postprandial plasma cholesterol compared with pretreatment,C57BL/6J mice fed the WD; 0.04% w/w in WD,significantly lowered
same,postprandial plasma triglyceride compared with pretreatment,C57BL/6J mice fed the WD; 0.04% w/w in WD,significantly lowered
same,random-fed blood glucose compared with WD-fed controls,C57BL/6J mice fed the WD; 0.04% w/w in WD,decrease
same,random-fed insulin levels compared with WD-fed controls,C57BL/6J mice fed the WD; 0.04% w/w in WD,decrease
same,skeletal muscle triglyceride content,C57BL/6J mice fed the WD; 0.04% w/w in WD,completely normalized
same,body weight and body fat mass composition,"C57BL/6J mice fed the WD; 0.04% w/w in WD (∼38 mg/kg per day), first 2 weeks of treatment",recovered normal body weight and body fat mass composition similar to the lean chow-fed control mice
same,WD-induced fat gain (EchoMRI and terminal gonadal fat pad mass),"C57BL/6J mice fed the WD; 0.04% w/w in WD, 6 weeks",completely reversed the WD-induced fat gain
same,food intake,"C57BL/6J mice fed the WD; 0.04% w/w in WD, 6 weeks",without a decrease in food intake
same,lipid droplet accumulation in liver tissue (hematoxylin and eosin staining),"C57BL/6J mice fed the WD; 0.04% w/w in WD, 6 weeks",decreased lipid droplet accumulation
same,liver cholesterol concentrations,"C57BL/6J mice fed the WD; 0.04% w/w in WD, 6 weeks",lower than WD-fed control mice and similar to chow-fed mice
same,liver triglyceride levels,"C57BL/6J mice fed the WD; 0.04% w/w in WD, 6 weeks",between those of chow-fed and WD-fed mice without being statistically different from either group
same,blood ALT levels,"C57BL/6J mice fed the WD; 0.04% w/w in WD, 6 weeks, both cohorts",did not raise ALT levels
same,glucose tolerance (GTT at week 9),"C57BL/6J mice fed the WD; 0.04% w/w in WD, after 5 weeks of treatment",completely reversed glucose intolerance
same,"insulin levels during GTT, lower than WD-fed controls",C57BL/6J mice fed the WD; second cohort of mice,20–30%
same,hepatic triglyceride production using poloxamer 407,C57BL/6J mice fed the WD; [10],neither experiment showed a phenotype
same,triglyceride clearance by oral triglyceride tolerance test (OTTT),C57BL/6J mice fed the WD; [10],neither experiment showed a phenotype
same,concentration at 6 weeks,[6]; brown fat,18000 ng/g
same,concentration at 6 weeks,[6]; gonadal fat,27000 ng/g
same,concentration at 6 weeks,[6]; liver,14500 ng/g and ~34 µM
same,steady-state tissue distribution,"[6]; study termination, 0.04% w/w in WD","primarily localized to adipose and liver tissue depots, with lesser exposure in quadriceps muscle, heart, and brain"
same,ACC expression versus WD-fed control mice,[7],lower
same,FAS expression versus WD-fed control mice,[7],lower
same,Ser79 phosphorylation of ACC,[7],trend for increased Ser79 phosphorylation of ACC
same,phosphorylation of AMPK-Thr172,[7],increased phosphorylation of AMPK-Thr172
same,decrease of HAD activity versus WD-fed control,[8],12%
same,MCAD activity,[9],no treatment had any effect
same,mitochondrial respiration in the presence of oligomycin,L6 cells,increase mitochondrial respiration in the presence of the ATP synthase inhibitor oligomycin
same,"spare respiratory capacity, % of BAM15-treated cells",L6 cells,~90%
